This note sets out measurements from doi:10.1101/2024.03.13.583470v1, “SARS-CoV-2 methyltransferase nsp10-16 in complex with natural and drug-like purine analogs for guiding structure-based drug discovery” (biorxiv, 2024).

The test deals with T1, nsp10-16 (Severe acute respiratory syndrome coronavirus 2, UniProt P0DTD1).
T1 construct: gene rep
As to the kind of experiment: X-ray crystallography, soaking. Conditions: SAM site, fully replaces SAM; 10 mM soak, pH 6.5. The class given is binding.

On to `Nc1ncnc2c1c(I)cn2[C@@H]1O[C@H](CO)[C@@H](O)[C@H]1O` [5-iodotubercidin], for which the “X-ray crystallography, soaking” value is “toyocamycin, sangivamycin and 5-iodotubercidin share the same orientation as tubercidin”.

With `N#Cc1cn([C@@H]2O[C@H](CO)[C@@H](O)[C@H]2O)c2ncnc(N)c12` [toyocamycin], the “X-ray crystallography, soaking” value is “toyocamycin, sangivamycin and 5-iodotubercidin share the same orientation as tubercidin”.
